This note sets out measurements from PMC6588697, “Lugdunin amplifies innate immune responses in the skin in synergy with host- and microbiota-derived factors” (Nature Communications, 2019).

One experiment deals with PHKs. In words: AMP gene expression in PHKs (qRT-PCR, normalized to actin). The conditions noted are these: 20 h, 2 µM lugdunin and/or S. epidermidis CM, medium = 1, two technical replicates, Fig 1c. It counts as cell-based, human. The method, then:
Fig. 1 Lugdunin sensitizes epithelial cells for innate immune defense. a Primary human keratinocytes (PHKs) were pretreated with S. epidermidis conditioned medium (CM), indicated lugdunin concentrations, or the combination of both for 20 h. Subsequently, cells were infected with S. aureus for 1.5 h followed by cell lysis and determination of colony-forming units (CFUs). Shown is one representative experiment of three independent experiments with six technical replicates ± s.e.m. n.s., not significant. b Dorsal skin of mice was pretreated with S. epidermidis CM, 1.5 µg lugdunin alone or in combination with S. epidermidis CM for 24 h. Subsequently, S. aureus CFUs were determined. Horizontal lines represent the mean of each group ± s.e.m. c PHKs were treated with 2 μM lugdunin or with S. epidermidis CM alone or in combination for 20 h and subsequently expression of indicated antimicrobial peptides (AMPs) (respective protein names in brackets) was analyzed and normalized to actin. Shown is one representative experiment of three independent experiments with two technical replicates ± s.e.m. d PHKs were treated with 2 µM lugdunin or 100 ng/mL Pam2Cys for 5 h and subsequently the concentration of indicated cytokines in the supernatant was analyzed by LEGENDplex^TM (BioLegend). Shown is one representative experiment of three independent experiments with two technical replicates ± s.e.m. e PHKs were treated with increasing concentrations of lugdunin or 100 ng/mL Pam2Cys or Pam3Cys for 5 h and subsequently expression of chemokine (C-X-C motif) ligand 8 (CXCL8) was analyzed and normalized to actin. Shown is one representative experiment of three independent experiments, each with two technical replicates ± s.e.m. f, g Indicated cells were treated with 2 µM lugdunin or 100 ng/mL Pam2Cys as a positive control for 5 h and subsequently the concentration of CXCL8 (f) and interleukin-1α (IL-1α) (g) in the supernatant was analyzed by LEGENDplex^TM (BioLegend) and enzyme-linked immunosorbent assay (ELISA) (R&D Systems). Shown is one representative experiment of three independent experiments with two technical replicates ± s.e.m. Significant differences to control treatments were analyzed by ordinary one-way analysis of variance (ANOVA) followed by Dunnett’s multiple comparisons test (*P < 0.05; **P < 0.01; ***P < 0.001; ****P < 0.0001). n.d. = not detected. Source data are provided as a Source Data file
After 5 h or 20 h of peptide treatment, PHKs were washed once with PBS, followed by the addition of RNA lysis buffer directly into the well. Total RNA was extracted using the Nucleospin RNA Kit (Macherey-Nagel) according to the manufacturer’s protocol. Complementary DNA was synthesized using the Reverse-Transkriptase Kit (Thermo Scientific) with 2 µg of RNA, 4 µL of 5× RT buffer, 0.5 µL Maxima reverse transcriptase ([…]), 1 µL of random hexamer primer (100 µM), dNTP (10 mM), and RNAse-free water to a total volume of 20 µL. After pre-incubation of RNA with water for 10 min at 70 °C, master mix was added and incubated for 10 min at 25 °C, followed by 45 min at 50 °C and a final heat inactivation step for 5 min at 85 °C.
Quantitative reverse transcription-polymerase chain reaction (qRT-PCR) was performed in 10 µL reaction volume with SYBR^TM Green PCR Master Mix (Thermo Fisher) according to the manufacturer’s instructions using a LightCycler 96 (Roche Life Science). […]
11 subsequently expression of CAMP (LL-37) was analyzed and normalized to actin. […]
On the technique in general: Real-time PCR tracks product formation cycle by cycle.

Another experiment relates to PBMCs. In words: Cytokine release into PBMC supernatant (LEGENDplex / ELISA). As to conditions: 5 h, lugdunin 2 µM or Pam2Cys 100 ng/mL, two technical replicates, Fig 1f. The class given is cell-based, human. As to the method:
Fig. 1 Lugdunin sensitizes epithelial cells for innate immune defense. a Primary human keratinocytes (PHKs) were pretreated with S. epidermidis conditioned medium (CM), indicated lugdunin concentrations, or the combination of both for 20 h. Subsequently, cells were infected with S. aureus for 1.5 h followed by cell lysis and determination of colony-forming units (CFUs). Shown is one representative experiment of three independent experiments with six technical replicates ± s.e.m. n.s., not significant. b Dorsal skin of mice was pretreated with S. epidermidis CM, 1.5 µg lugdunin alone or in combination with S. epidermidis CM for 24 h. Subsequently, S. aureus CFUs were determined. Horizontal lines represent the mean of each group ± s.e.m. c PHKs were treated with 2 μM lugdunin or with S. epidermidis CM alone or in combination for 20 h and subsequently expression of indicated antimicrobial peptides (AMPs) (respective protein names in brackets) was analyzed and normalized to actin. Shown is one representative experiment of three independent experiments with two technical replicates ± s.e.m. d PHKs were treated with 2 µM lugdunin or 100 ng/mL Pam2Cys for 5 h and subsequently the concentration of indicated cytokines in the supernatant was analyzed by LEGENDplex^TM (BioLegend). […]
On the technique in general: An ELISA detects its analyte on a solid surface through an enzyme-linked reagent.

“And” between values parts separate entries of the source, which are not always exact repeats. Equal entries are not always repeated.

In the case of Lugdunin, in the experiment on PHKs, the “CAMP (LL-37) expression normalized to actin” value is 189.36 and 213.04; the “DEFB1 (HBD-1) expression normalized to actin” value was determined as 1.91; the “DEFB4A (HBD-2) expression normalized to actin” value is 0.69 and 0.77; the “DEFB103A (HBD-3) expression normalized to actin” value is 1.53 and 1.71. The “RNASE7 (RNase7) expression normalized to actin” value in the experiment on PHKs was 2.34 and 2.18. In addition, the “CXCL8 concentration in supernatant” value with PBMCs was 231.761 and 233.451.
